± gives the standard deviation of the averaged measurements.

Among the data in the supplement of paper PMC10883282 are relative viability values, retold here.

The test system of the experiment is VA-ES-BJ. Briefly: relative viability vs DMSO control (72 h) (fraction); higher = more viable cells. The essentials: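 Relative viability was measured with ATPLite and expressed as percent growth, averaged across up to triplicate wells. Sarcoma cell lines had been seeded in 384-well plates to reach 80–90% confluence, dosed after 24 h, and incubated 72 h at 37 °C, 5% CO2. All data were rescaled on a scale where 1 is full and 0 is none.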

On to `COc1c(OCCCN2CCOCC2)ccc2c1N=C(NC(=O)c1cnc(N)nc1)N1CCN=C21` [Copanlisib], for which the relative viability (0.00017 µM) is 1.09 ± 0.027; the relative viability (0.00051 µM) is 0.983 ± 0.071; the relative viability (0.00152 µM) was 1.066 ± 0.0069; the relative viability (0.00457 µM) is 0.74 ± 0.026; the relative viability (0.01372 µM) was 0.594 ± 0.029; the relative viability (0.04115 µM) stood at 0.484 ± 0.017. This compound displayed a relative viability (0.1235 µM) of 0.42 ± 0.022; a relative viability (0.3704 µM) of 0.396 ± 0.041; a relative viability (1.111 µM) of 0.406 ± 0.019; a relative viability (3.333 µM) of 0.394 ± 0.095; a relative viability (10 µM) of 0.304 ± 0.16.

`CN1CCN(c2ccc3nc(-c4c(N)c5c(F)cccc5[nH]c4=O)[nH]c3c2)CC1` [Dovitinib] returned a relative viability (0.00017 µM) of 1.06 ± 0.027; a relative viability (0.00051 µM) of 1.06 ± 0.028; a relative viability (0.00152 µM) of 1.08 ± 0.044; a relative viability (0.00457 µM) of 1.08 ± 0.028; a relative viability (0.01372 µM) of 1.07 ± 0.029; a relative viability (0.04115 µM) of 1.06 ± 0.031. In addition, the relative viability by setting is: (0.1235 µM) 1.05 ± 0.025; (0.3704 µM) 0.956 ± 0.0053; (1.111 µM) 0.738 ± 0.049; (3.333 µM) 0.495 ± 0.021; (10 µM) 0.313 ± 0.039.

Take `COCc1c(-c2cc3cc(C)cc(OC)c3s2)c2c(N)ncnn2c1CN1CCNC(=O)C1` [Rogaratinib]: the relative viability was 1.074 ± 0.0046 (0.00017 µM); 1.07 ± 0.037 (0.00051 µM); 1.05 ± 0.036 (0.00152 µM); 1.05 ± 0.021 (0.00457 µM); 1.06 ± 0.021 (0.01372 µM); 1.03 ± 0.042 (0.04115 µM). In addition, the relative viability runs as follows: (0.1235 µM) 1.04 ± 0.081; (0.3704 µM) 1.02 ± 0.075; (1.111 µM) 1.02 ± 0.063; (3.333 µM) 0.908 ± 0.087; (10 µM) 0.568 ± 0.031.

For `CN1CCC(COc2cnc(-c3cccc(Cn4nc(-c5cccc(C#N)c5)ccc4=O)c3)nc2)CC1` [Tepotinib], the relative viability was 1.07 ± 0.019 (0.00017 µM); 1.06 ± 0.021 (0.00051 µM); 1.02 ± 0.033 (0.00152 µM); 1.05 ± 0.044 (0.00457 µM); 1.02 ± 0.023 (0.01372 µM); 0.943 ± 0.044 (0.04115 µM). For the same compound, the relative viability is, setting by setting: (0.1235 µM) 0.869 ± 0.021; (0.3704 µM) 0.866 ± 0.04; (1.111 µM) 0.869 ± 0.067; (3.333 µM) 0.845 ± 0.045; (10 µM) 0.869 ± 0.041.
